# Data published in patent US7422846B2, “Natural ligand for orphan G protein coupled receptor GPR86 and methods of use” (Euroscreen S.A, priority 2001, dated 2008).
# Molecular target: T1, GPR86 (P2Y13) human receptor (Homo sapiens, UniProt Q9BPV8, T179M)
# T1 sequence (Q9BPV8 22-354 T179M): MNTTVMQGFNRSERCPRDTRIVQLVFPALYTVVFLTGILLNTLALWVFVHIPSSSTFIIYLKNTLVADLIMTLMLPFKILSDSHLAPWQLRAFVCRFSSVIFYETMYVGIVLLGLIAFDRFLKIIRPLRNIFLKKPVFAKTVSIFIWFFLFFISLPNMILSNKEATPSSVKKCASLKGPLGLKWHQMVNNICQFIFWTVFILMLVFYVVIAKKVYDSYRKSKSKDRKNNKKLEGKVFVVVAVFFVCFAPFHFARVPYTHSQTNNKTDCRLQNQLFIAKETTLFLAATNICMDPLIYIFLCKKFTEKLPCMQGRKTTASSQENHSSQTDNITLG
# Experiment: cAMP accumulation in CHO-K1 cells expressing GPR86 in the presence of forskolin
# Format: cell-based
# Set-up: expressed in transfected cells; host or cells: 1321N1 astrocytoma clone AG32 (stably expressing Gα16 from pERAEQ2), G418-selected
# Settings: forskolin 4 μM
# Procedure: Secondary messenger assays, amenable to high throughput screening analysis, are performed including but not limited to the measurement of intracellular levels of cAMP, intracellular inositol phosphate, intracellular diacylglycerol concentrations, arachinoid acid concentration or MAP kinase or tyrosine kinase activity (as decribed above). For example, the GPR86 activity, as measured in a cyclic AMP assay, is quantified by a radioimmunoassay as previously described (26). Results are compared to the baseline level of GPR86 activity obtained from recombinant cells according to the invention in the presence of ADP but in the absence of added modulator compound. Wells showing at least 2 fold, preferably 5 fold, more preferably 10 fold and most preferably a 100 fold or more increase or decrease in GPR86 activity as compared to the level of activity in the absence of modulator, are selected for further analysis.
# The potential effect of nucleotides was tested on the cAMP pathway in CHO-K1 cells expressing the human GPR86 receptor. […] CHO-K1 transfected cells were incubated in the presence of various concentrations of ADP and 4 μM forskolin for 10 min. The data represent the mean±S.D. of triplicate experimental points obtained in one representative experiment of three and 2MeSADP in the presence of forskolin 4 μM. […] CHO-K1 transfected cells were incubated in the presence of various concentrations of ADP an 4 μM forskolin for 10 minutes. The data represent the mean+/−S.D. of triplicate experimental points obtained in one representative experiment of three. CHO-K1 transfected cells were pre-incubated with or without 100 ng/ml pertussis toxin for 18 h and then incubated in the presence of ADP (100 nM and 100 μM) or water (CONT) and 4 μM forskolin for 10 min. The data represent the mean±S.D. of triplicate experimental points obtained in one representative experiment of two. The biphasic effect of ADP on adenylyl cyclase has been reproduced in 1321N1 cells transfected with the human GPR86 receptor.
SMILES,effect on cAMP level at low concentrations,effect on adenylyl cyclase / cAMP at high concentration (10 μM),"effect on cAMP level after pertussis toxin pretreatment (ADP 100 nM and 100 μM, 18 h pretreatment with 100 ng/ml pertussis toxin)",maximal inhibition percentage of cAMP (at 30 nM),"IC50 (10 min, mean±S.D. of three independent experiments, read-out: IC50, inhibition of cAMP level)"
"CSc1nc(N)c2ncn([C@@H]3O[C@H](COP(=O)(O)OP(=O)(O)O)[C@@H](O)[C@H]3O)c2n1 [2MeSADP, 2-methylthio-ADP]",Significant inhibitions of the cAMP level,–,–,–,–
Nc1ncnc2c1ncn2[C@@H]1O[C@H](COP(=O)(O)OP(=O)(O)O)[C@@H](O)[C@H]1O [ADP],Significant inhibitions of the cAMP level,small increase,significant increases of the cAMP level,52±7%,1.5 ± 0.6 nM
